# Target: T1, Aromatase (Homo sapiens, UniProt P11511)
# T1 sequence (P11511 whole entry): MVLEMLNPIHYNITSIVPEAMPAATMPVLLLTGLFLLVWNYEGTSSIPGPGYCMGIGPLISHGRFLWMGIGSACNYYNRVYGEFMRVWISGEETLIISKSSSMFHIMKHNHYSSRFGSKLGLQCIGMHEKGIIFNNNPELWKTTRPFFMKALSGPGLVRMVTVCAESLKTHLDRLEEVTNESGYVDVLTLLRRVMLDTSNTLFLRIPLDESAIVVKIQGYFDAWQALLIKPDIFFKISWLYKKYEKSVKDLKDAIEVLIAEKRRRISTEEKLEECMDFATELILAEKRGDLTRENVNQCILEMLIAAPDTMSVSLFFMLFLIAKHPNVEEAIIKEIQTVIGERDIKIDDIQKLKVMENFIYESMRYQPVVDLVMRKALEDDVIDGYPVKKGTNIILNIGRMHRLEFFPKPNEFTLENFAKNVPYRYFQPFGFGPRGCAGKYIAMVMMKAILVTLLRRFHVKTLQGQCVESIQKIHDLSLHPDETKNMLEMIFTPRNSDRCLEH
# Assay type: microsomes, Placenta, Microsomes
# Description: Inhibition of human aromatase in placental microsomes
row,IC50 [nM],SMILES
1,3400,O=C1CC(c2cccc(O)c2)Oc2cc(O)ccc21 (configuration not stated)
2,1370,N#Cc1cccc(C2CC(=O)c3ccc4ccccc4c3O2)c1 (configuration not stated)
3,2100,O=C1C[C@@H](c2ccc(O)cc2)Oc2cc(O)ccc21 [LIQUIRTIGENIN]
4,610,O=C1CC(c2cccc(O)c2)Oc2c1ccc1ccccc21 (configuration not stated)
5,1540,N#Cc1ccc(C2CC(=O)c3ccc4ccccc4c3O2)cc1 (configuration not stated)
6,4300,O=C1CC(c2ccccc2)Oc2c1ccc1ccccc21 (configuration not stated)
7,630,O=C1CC(c2ccc(O)cc2)Oc2c1ccc1ccccc21 (configuration not stated)

# — ChEMBL document CHEMBL1143207, “New 7,8-benzoflavanones as potent aromatase inhibitors: synthesis and biological evaluation” (Bioorg Med Chem, 2008)
